Measured values reported in PMC4321555, “Differential inhibition of Arabidopsis superoxide dismutases by peroxynitrite-mediated tyrosine nitration” (Journal of Experimental Botany, 2014).
Positions count from the first letter of the chain named.

Experiments:
Format in all cases: biochemical
[1] = target: T1, CSD1 (Cu/ZnSOD1) (Arabidopsis thaliana, UniProt P24704); assay: NBT-formazan SOD assay (xanthine/xanthine oxidase); details: superoxide generated by xanthine oxidase; 570 nm
T1 sequence (P24704 1-152): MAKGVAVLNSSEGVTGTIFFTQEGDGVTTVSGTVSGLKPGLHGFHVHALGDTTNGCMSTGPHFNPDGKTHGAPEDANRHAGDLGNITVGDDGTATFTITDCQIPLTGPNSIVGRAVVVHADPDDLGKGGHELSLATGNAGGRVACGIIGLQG

[2] = target: T2, FSD2 (Arabidopsis thaliana, UniProt Q9LU64); assay: NBT-formazan SOD assay (xanthine/xanthine oxidase); details: superoxide generated by xanthine oxidase; 570 nm
T2 sequence (Q9LU64 1-305 limits assumed): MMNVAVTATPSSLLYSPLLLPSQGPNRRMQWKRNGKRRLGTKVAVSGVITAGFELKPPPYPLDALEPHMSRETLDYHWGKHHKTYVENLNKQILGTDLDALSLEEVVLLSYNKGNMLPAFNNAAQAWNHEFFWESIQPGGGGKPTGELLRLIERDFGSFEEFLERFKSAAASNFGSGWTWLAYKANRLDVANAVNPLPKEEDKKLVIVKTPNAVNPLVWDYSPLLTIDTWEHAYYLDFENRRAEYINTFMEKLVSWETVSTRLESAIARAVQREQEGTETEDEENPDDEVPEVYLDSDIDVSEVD

[3] = target: T3, FSD1 (Arabidopsis thaliana, UniProt P21276); assay: NBT-formazan SOD assay (xanthine/xanthine oxidase); details: superoxide generated by xanthine oxidase; 570 nm
T3 sequence (P21276 1-212): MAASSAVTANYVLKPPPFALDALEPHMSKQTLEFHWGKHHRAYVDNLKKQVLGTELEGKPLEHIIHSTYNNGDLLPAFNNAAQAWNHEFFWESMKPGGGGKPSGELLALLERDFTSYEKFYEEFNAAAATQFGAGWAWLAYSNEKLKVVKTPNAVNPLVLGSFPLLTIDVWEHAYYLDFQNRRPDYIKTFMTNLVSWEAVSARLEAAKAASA

[4] = target: T4, CSD2 (Cu/ZnSOD2) (Arabidopsis thaliana, UniProt O78310); assay: NBT-formazan SOD assay (xanthine/xanthine oxidase); details: superoxide generated by xanthine oxidase; 570 nm
T4 sequence (O78310 1-216 limits assumed): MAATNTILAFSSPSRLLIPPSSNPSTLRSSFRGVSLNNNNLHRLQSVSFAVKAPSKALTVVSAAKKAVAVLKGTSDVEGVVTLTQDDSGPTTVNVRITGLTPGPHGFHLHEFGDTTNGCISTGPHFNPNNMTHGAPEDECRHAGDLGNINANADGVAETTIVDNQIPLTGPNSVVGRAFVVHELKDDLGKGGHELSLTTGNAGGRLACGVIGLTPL

[5] = target: T5, CSD3 (Cu/ZnSOD3; peroxisomal copper/zinc SOD3) (Arabidopsis thaliana, UniProt Q9FK60); assay: NBT-formazan SOD assay (xanthine/xanthine oxidase); details: superoxide generated by xanthine oxidase; 570 nm
T5 sequence (Q9FK60 1-164): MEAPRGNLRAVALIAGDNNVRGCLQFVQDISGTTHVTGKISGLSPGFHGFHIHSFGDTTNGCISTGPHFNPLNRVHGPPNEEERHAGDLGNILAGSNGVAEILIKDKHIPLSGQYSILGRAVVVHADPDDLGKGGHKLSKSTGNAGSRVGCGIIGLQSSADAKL

[6] = target: T6, MSD1 (MnSOD; manganese SOD1) (Arabidopsis thaliana, UniProt O81235); assay: NBT-formazan SOD assay (xanthine/xanthine oxidase); details: superoxide generated by xanthine oxidase; 570 nm
T6 sequence (O81235 1-231): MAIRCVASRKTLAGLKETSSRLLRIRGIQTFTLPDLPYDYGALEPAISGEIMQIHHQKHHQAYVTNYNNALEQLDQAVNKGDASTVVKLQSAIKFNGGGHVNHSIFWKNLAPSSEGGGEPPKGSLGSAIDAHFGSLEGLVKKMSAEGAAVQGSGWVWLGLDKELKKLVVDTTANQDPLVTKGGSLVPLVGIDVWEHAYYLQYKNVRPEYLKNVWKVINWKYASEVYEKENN

[7] = target: T7, FSD3 (FeSOD3; chloroplastic iron SOD3) (Arabidopsis thaliana, UniProt Q9FMX0); assay: NBT-formazan SOD assay (xanthine/xanthine oxidase); details: superoxide generated by xanthine oxidase; 570 nm
T7 sequence (Q9FMX0 1-263 limits assumed): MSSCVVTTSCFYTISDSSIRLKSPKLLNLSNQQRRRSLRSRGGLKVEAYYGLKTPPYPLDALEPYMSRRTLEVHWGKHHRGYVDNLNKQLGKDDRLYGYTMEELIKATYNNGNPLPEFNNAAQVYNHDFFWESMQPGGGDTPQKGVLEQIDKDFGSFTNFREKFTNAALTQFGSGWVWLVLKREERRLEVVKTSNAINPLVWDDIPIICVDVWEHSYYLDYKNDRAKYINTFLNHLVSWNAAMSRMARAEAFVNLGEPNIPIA

[8] = target: T8, MSD1 (MnSOD; manganese SOD1) (Arabidopsis thaliana, UniProt O81235, Y63F); assay: SOD activity after peroxynitrite treatment; details: covalent (tyrosine nitration); 20 min, RT, dark; potassium phosphate pH 8.0
T8 sequence (O81235 1-231 Y63F): T6 sequence (O81235 1-231) with Y63F

[9] = target: T5, CSD3 (Cu/ZnSOD3; peroxisomal copper/zinc SOD3); assay: SOD activity after peroxynitrite treatment (cytochrome c reduction); details: covalent (tyrosine nitration, Tyr115); 20 min, RT, dark; potassium phosphate pH 8.0
[10] = target: T6, MSD1 (MnSOD; manganese SOD1); assay: as above; details: covalent (tyrosine nitration, mainly Tyr63); 20 min, RT, dark; potassium phosphate pH 8.0
[11] = target: T7, FSD3 (FeSOD3; chloroplastic iron SOD3); assay: as above; details: covalent (tyrosine nitration); 20 min, RT, dark; potassium phosphate pH 8.0

Row | SMILES | NBT-formazan SOD assay (xanthine/xanthine oxidase) [1] | NBT-formazan SOD assay (xanthine/xanthine oxidase) [2] | NBT-formazan SOD assay (xanthine/xanthine oxidase) [3] | NBT-formazan SOD assay (xanthine/xanthine oxidase) [4] | NBT-formazan SOD assay (xanthine/xanthine oxidase) [5] | NBT-formazan SOD assay (xanthine/xanthine oxidase) [6] | NBT-formazan SOD assay (xanthine/xanthine oxidase) [7] | % inhibition at 500 μM [8] [%] | % remaining activity at 500 μM [9] [%] | % inhibition at 500 μM [10] | % remaining activity at 500 μM [11] [%]
1 | [O]O [superoxide] | The activity of the purified, recombinant SODs was determined using the nitroblue tetrazolium (NBT)–formazan method | The activity of the purified, recombinant SODs was determined using the nitroblue tetrazolium (NBT)–formazan method | The activity of the purified, recombinant SODs was determined using the nitroblue tetrazolium (NBT)–formazan method | The activity of the purified, recombinant SODs was determined using the nitroblue tetrazolium (NBT)–formazan method | The activity of the purified, recombinant SODs was determined using the nitroblue tetrazolium (NBT)–formazan method | The activity of the purified, recombinant SODs was determined using the nitroblue tetrazolium (NBT)–formazan method | The activity of the purified, recombinant SODs was determined using the nitroblue tetrazolium (NBT)–formazan method | – | – | – | –
2 | O=NOO [peroxynitrite] | – | – | – | – | – | – | – | 30 | 65 | ~ 90% | 65
